Test system: green peach aphid (Myzus persicae)
Experiment: Myzus persicae - spray test on cabbage leaves
Format: in vivo
Conditions: mortality, 1600 ppm, spray on infested cabbage leaves
Experimental: The expected efficacy of a given combination of two compounds is calculated as follows (see Colby, S.R., “Calculating Synergistic and antagonistic Responses of Herbicide Combinations”, Weeds 15, pp. 20-22, 1967):
If • X is the efficacy expressed in % mortality of the untreated control for test compound A at a concentration of m ppm or m g/ha, • Y is the efficacy expressed in % mortality of the untreated control for test compound B at a concentration of n ppm or n g/ha, • E is the efficacy expressed in % mortality of the untreated control using the mixture of A and B at m and n ppm respectively m and n g/ha, • then is
If the observed insecticidal efficacy of the combination is higher than the one calculated as “E”, then the combination of the two compounds is more than additive, i.e., there is a synergistic effect.
Myzus persicae—Spray Test
• Solvent: 7 parts by weight of dimethylformamide • Emulsifier: alkylaryl polyglycol ether
To produce a suitable preparation of active compound, 1 part by weight of active compound is mixed with the stated amount of solvent and is diluted with water, containing an emulsifier concentration of 1000 ppm, to the desired concentration. […]
After the specified period of time mortality in % is determined. […] The mortality values determined thus are recalculated using the Colby-formula (see sheet 1).

C=C(C)[C@H]1CC=C(C)CC1 [(R)-(+)-limonene 97%, (R)-(+)-limonene]
Efficacy in % after 6 days: 0%

Source: patent US12342823B2, “Active compound combinations having insecticidal/acaricidal properties” (Bayer Aktiengesellschaft, priority 2018, dated 2025)
